Results reported in US20030130280A1, “Treatment of acute myeloid leukemia with indolinone compounds” (SUGEN, Inc., priority 2001, published 2003).

Legend:
[1] = biological target: T1, FLT-3 (Homo sapiens, UniProt P36888); assay: FLT-3 ligand stimulated FLT-3 phosphorylation in OC1-AML5 cells; type: cell-based; details: FLT-3 ligand stimulated OC1-AML5 cells
T1 construct: The OC1-AML5 cell line which express FLT-3-wild type was obtained (Pharmacia); host or cells: OC1-AML5
T1 sequence (P36888 27-993): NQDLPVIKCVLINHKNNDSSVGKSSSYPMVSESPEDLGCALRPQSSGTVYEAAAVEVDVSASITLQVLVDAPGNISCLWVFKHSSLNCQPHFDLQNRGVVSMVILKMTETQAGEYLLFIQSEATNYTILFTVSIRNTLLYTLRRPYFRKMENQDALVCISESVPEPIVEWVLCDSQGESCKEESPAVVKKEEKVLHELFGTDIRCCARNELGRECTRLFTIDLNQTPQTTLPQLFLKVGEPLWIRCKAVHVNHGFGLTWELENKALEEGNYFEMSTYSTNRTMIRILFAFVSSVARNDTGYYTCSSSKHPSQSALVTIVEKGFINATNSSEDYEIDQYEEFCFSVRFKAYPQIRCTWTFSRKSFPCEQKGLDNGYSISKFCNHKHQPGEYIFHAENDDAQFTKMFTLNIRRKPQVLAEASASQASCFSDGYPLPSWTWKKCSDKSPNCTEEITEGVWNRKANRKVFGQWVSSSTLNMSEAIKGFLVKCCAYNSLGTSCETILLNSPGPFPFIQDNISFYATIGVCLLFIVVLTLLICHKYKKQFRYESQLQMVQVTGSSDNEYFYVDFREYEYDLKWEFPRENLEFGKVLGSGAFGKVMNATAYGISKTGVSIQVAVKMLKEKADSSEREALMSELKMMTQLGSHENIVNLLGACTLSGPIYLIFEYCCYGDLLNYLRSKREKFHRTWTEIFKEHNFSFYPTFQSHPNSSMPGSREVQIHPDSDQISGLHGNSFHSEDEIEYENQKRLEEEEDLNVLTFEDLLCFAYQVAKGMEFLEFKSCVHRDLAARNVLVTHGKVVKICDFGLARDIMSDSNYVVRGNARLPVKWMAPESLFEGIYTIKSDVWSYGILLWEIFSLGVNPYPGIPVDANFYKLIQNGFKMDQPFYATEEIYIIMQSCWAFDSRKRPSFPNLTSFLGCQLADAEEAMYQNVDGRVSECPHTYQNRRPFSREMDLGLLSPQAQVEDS
Text: Cells were stimulated with FLT-3 ligand and lysed. FLT-3 was immunoprecipitated from lysates with a commercially available antibody. Proteins were separated by SDS-polyacrylamide gel electrophoresis, transferred to membranes and analyzed by Western blotting for phosphotyrosine and subsequently for total FLT-3 protein as control.

[2] = tested on: OC1-AML5; assay: VEGF production, OC1-AML5 cells; type: cell-based; details: for VEGF %: 0 uM = 100
[3] = tested on: RS411 (wild type FLT-3); assay: Apoptosis by PARP cleavage and caspase 3 staining, wild type cells; type: cell-based; details: PARP cleavage, caspase 3 staining
Description: (§1) Apoptosis was measured by analysis of PARP cleavage and by caspase 3 staining.

[4] = tested on: Stat5; assay: Stat5 activation by FLT-3 ligand in OC1-AML5 cells (IP/Western, Western, gel shift); type: cell-based; details: FLT-3 ligand stimulated
Text: Activation of downstream pathways by FLT-3 ligand was also investigated, specifically for Stat5 and erk. Stat5 and Erk are downstream mediators of RTK signaling, and may provide readouts for FLT-3 signaling. Stat 5 is a transcription factor which regulates many genes involves in cell survival and proliferation. Erk½ are kinases on the Raf signaling pathway.

[5] = tested on: MV4; 11; assay: VEGF production, MV4;11 cells; type: cell-based; details: for VEGF %: 0 uM = 100
[6] = tested on: MV411 (ITD mutant FLT-3); assay: Cell proliferation, MV411; type: cell-based
[7] = tested on: MV411 (ITD mutant FLT-3); assay: Apoptosis by PARP cleavage and caspase 3 staining, ITD-mutant cells; type: cell-based; details: PARP cleavage, caspase 3 staining
Description: as §1

[8] = tested on: RS4; 11; assay: VEGF production, RS4;11 cells; type: cell-based; details: for VEGF %: 0 uM = 100
[9] = tested on: FLT-3; assay: Phase I single dose study, FLT-3 phosphorylation in whole blood; type: in vivo, human; details: AML patients, reached in 3 pts at each dose level >200 mg, WT and mutant FLT-3 patients
Description: Immunoprecipitation and Western Blot (IP/W) analysis: Cells were lysed in lysis buffer (20 mM Tris, pH 7.5; 137 mM NaCl; 10% glycerol; 1% NP-40; 0.1% SDS; 2 mM EDTA) containing protease and phosphatase inhibitors (50 mM sodium fluoride, 1 mM sodium orthovanadate, 2 mM Pefabloc, […], […], […], 4 mM leupeptin, and 4 mM pepstatin A). Equivalent amounts of protein were separated by SDS-PAGE, then transferred to nitrocellulose membranes. For analysis of FLT3 phosphorylation, equivalent amounts of protein from each sample were immunoprecipitated overnight at 4*C. with an agarose-conjugated anti-FLT3 antibody (Santa Cruz Biotechnology, Santa Cruz, Calif.). Immune complexes were washed (150 mM NaCl, 1.5 mM MgCl2, 50 mM HEPES, pH 7.5, 10% glycerol, 0.1% Triton X-100, and 1 mM EGTA) and following SDS-PAGE, proteins were transferred to nitrocellulose membranes. Membranes were probed with an anti-phosphotyrosine antibody (Upstate, Lake Placid, N.Y. or Transduction Laboratories, Lexington, Ky.) and then stripped with Restore Western Blot Stripping Buffer (Pierce, Rockford, Ill.). Membranes were reprobed with an anti-FLT3 antibody (Santa Cruz Biotechnology). Stat5 antibodies for immunprecipitation and Western blot analysis were from Upstate Biotechnology and Transduction labs respectively.

[10] = tested on: VEGF; assay: Plasma VEGF by ELISA; type: in vivo; details: plasma of NOD-SCID mice
Description: At experimental endpoints, mice were anesthetized, followed by terminal blood collection via intracardiac puncture. Bone marrow cell suspensions were prepared by flushing mouse femurs with cold, sterile PBS. For all studies, a paired Student's t test was used to assess differences between treated and control groups (P<0.05 was considered significant).
Plasma from the NOD-SCID mice described above was analyzed by ELISA for VEGF protein levels using a commercially available kit.

Q: How did the FLT-3 phosphorylation [1] turn out when CCN(CC)CCNC(=O)c1c(C)[nH]c(/C=C2\C(=O)Nc3ccc(F)cc32)c1C [Compound 1, 5-(5-Fluoro-2-oxo-1,2-dihydro-indol-3-ylidenemethyl)-2,4-dimethyl-1H-pyrrole-3-carboxylic acid(2-diethylamino-ethyl)-amide] was run?
A: decreased

Q: What about the VEGF mean sd ([2]; CMPD 1 0.00 uM) of the same molecule?
A: 92.5

Q: What about the VEGF % ([2]; CMPD 1 0.00 uM) of the same molecule?
A: 91.8%

Q: And the VEGF mean sd ([2]; CMPD 1 0.01 uM)?
A: 35.6

Q: What about the VEGF % ([2]; CMPD 1 0.01 uM) of the same molecule?
A: 35.3%

Q: What about the VEGF mean sd ([2]; CMPD 1 0.1 uM) of the same molecule?
A: 33.6

Q: And the VEGF % ([2]; CMPD 1 0.1 uM)?
A: 33.3%

Q: And the VEGF mean sd ([2]; CMPD 1 1 uM)?
A: 28.3

Q: And the VEGF % ([2]; CMPD 1 1 uM)?
A: 28.0%

Q: And the VEGF % ([2]; CMPD 1 10 uM)?
A: 15.5%

Q: What about the apoptosis [3] of the same molecule?
A: causes apoptosis

Q: And the Stat5 activity [4]?
A: inhibited

Q: What about the VEGF mean sd ([5]; CMPD 1 0.00 uM) of the same molecule?
A: 287.8

Q: What about the VEGF % ([5]; CMPD 1 0.00 uM) of the same molecule?
A: 83.0%

Q: And the VEGF mean sd ([5]; CMPD 1 0.01 uM)?
A: 65.4

Q: What about the VEGF % ([5]; CMPD 1 0.01 uM) of the same molecule?
A: 18.9%

Q: What about the VEGF mean sd ([5]; CMPD 1 0.1 uM) of the same molecule?
A: 31.2

Q: And the VEGF % ([5]; CMPD 1 0.1 uM)?
A: 9.0%

Q: And the VEGF mean sd ([5]; CMPD 1 1 uM)?
A: 30.5

Q: What about the VEGF % ([5]; CMPD 1 1 uM) of the same molecule?
A: 8.8%

Q: And the VEGF mean sd ([5]; CMPD 1 10 uM)?
A: 23.3

Q: And the VEGF % ([5]; CMPD 1 10 uM)?
A: 6.7%

Q: What about the “expansion of MV411” value [6] of the same molecule?
A: inhibited expansion

Q: What about the apoptosis [7] of the same molecule?
A: causes apoptosis

Q: What about the VEGF mean sd ([8]; CMPD 1 0.00 uM) of the same molecule?
A: 32.82

Q: What about the VEGF mean sd ([8]; CMPD 1 0.01 uM) of the same molecule?
A: 9.62

Q: And the VEGF % ([8]; CMPD 1 0.01 uM)?
A: 31.0%

Q: And the VEGF mean sd ([8]; CMPD 1 0.1 uM)?
A: 1.24

Q: What about the VEGF % ([8]; CMPD 1 0.1 uM) of the same molecule?
A: 4.0%

Q: What about the VEGF mean sd ([8]; CMPD 1 1 uM) of the same molecule?
A: 2.3

Q: What about the VEGF % ([8]; CMPD 1 1 uM) of the same molecule?
A: 7.4%

Q: And the VEGF mean sd ([8]; CMPD 1 10 uM)?
A: 2.94

Q: What about the VEGF % ([8]; CMPD 1 10 uM) of the same molecule?
A: 9.5%

Q: What about the “inhibition of FLT-3 phosphorylation” value [9] of the same molecule?
A: > 50%

Q: What about the “VEGF in plasma (mean)” value [10] of the same molecule?
A: 49 pg/mL
